Data reported in US10807952B2 (Achillion Pharmaceuticals, Inc., priority 2015, dated 2020).

Target: Human Factor D (Homo sapiens (Human), UniProt P00746)
Assay: Human Factor D assay (Z-L-Lys-SBzl / DTNB, absorbance at 405 nm)
Type: biochemical
Settings: Table 3; Human Factor D 80 nM, assay of Example 13
Description: Human Factor D (purified from human serum, Complement Technology, Inc.) at 80 nM final concentration was incubated with test compound at various concentrations for 5 minutes at room temperature in 50 mM Tris, 1M NaCl, pH 7.5. A synthetic substrate Z-L-Lys-SBzl and DTNB (Ellman's reagent) were added to final concentrations of 100 μM each. […] IC50 values were calculated by nonlinear regression of complement Factor D reaction rates as a function of test compound concentration.

Sequence of Human Factor D (P00746 26-253): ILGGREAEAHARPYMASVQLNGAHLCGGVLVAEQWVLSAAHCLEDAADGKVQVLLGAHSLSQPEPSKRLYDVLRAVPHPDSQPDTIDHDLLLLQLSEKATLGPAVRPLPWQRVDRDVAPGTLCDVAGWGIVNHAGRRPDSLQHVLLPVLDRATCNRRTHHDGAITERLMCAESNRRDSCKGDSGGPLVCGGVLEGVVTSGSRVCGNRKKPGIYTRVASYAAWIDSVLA

Compound	IC50
CC(=O)c1cn(CC(=O)OC(C)(C)C)c2cc(-c3cccc(NC(=O)[C@@H]4C[C@@H](F)CN4C(=O)Cn4nc(C(N)=O)c5ccccc54)c3F)ccc12 [Compound 30, tert-butyl 2-(3-acetyl-6-(3-((2S,4R)-1-(2-(3-carbamoyl-1H-indazol-1-yl)acetyl)-4-fluoropyrrolidine-2-carboxamido)-2-fluorophenyl)-1H-indol-1-yl)acetate]	1000 to 10000 nM
CC(=O)c1cn(CC(=O)O)c2cc(-c3cccc(NC(=O)[C@@H]4C[C@@H](F)CN4C(=O)Cn4nc(C(N)=O)c5ccccc54)c3F)ccc12 [Compound 31, 2-(3-acetyl-6-(3-((2S,4R)-1-(2-(3-carbamoyl-1H-indazol-1-yl)acetyl)-4-fluoropyrrolidine-2-carboxamido)-2-fluorophenyl)-1H-indol-1-yl)acetic acid]	1000 to 10000 nM
N#Cc1n[nH]c2cc(-c3cccc(NC(=O)[C@@H]4C[C@@H](F)CN4C(=O)Cn4nc(C(N)=O)c5ccccc54)c3F)ccc12 [Compound 32, 1-(2-((2S,4R)-2-(3-(3-cyano-1H-indazol-6-yl)-2-fluorophenyl-carbamoyl)-4-fluoropyrrolidin-1-yl)-2-oxoethyl)-1H-indazole-3-carboxamide]	< 1000 nM
NC(=O)c1nn(CC(=O)N2C[C@H](F)C[C@H]2C(=O)Nc2cccc(-c3ccccc3Cl)c2F)c2cc(C(F)(F)F)sc12 [Compound 33, 1-(2-((2S,4R)-2-(2′-chloro-2-fluorobiphenyl-3-ylcarbamoyl)-4-fluoropyrrolidin-1-yl)-2-oxoethyl)-5-(trifluoromethyl)-1H-thieno[3,2-c]pyrazole-3-carboxamide]	< 1000 nM
NC(=O)c1ccc(Cl)c(-c2cccc(NC(=O)[C@@H]3C[C@@H](F)CN3C(=O)Cn3nc(C(N)=O)c4sc(C(F)(F)F)cc43)c2F)c1 [Compound 39, 1-(2-((2S,4R)-2-((5′-Carbamoyl-2′-chloro-2-fluoro-[1,1′-biphenyl]-3-yl)carbamoyl)-4-fluoropyrrolidin-1-yl)-2-oxoethyl)-5-(trifluoromethyl)-1H-thieno[3,2-c]pyrazole-3-carboxamide]	< 1000 nM
NC(=O)c1nn(CC(=O)N2C[C@H](F)C[C@H]2C(=O)Nc2cccc(Br)n2)c2cc(S(F)(F)(F)(F)F)ccc12 [Compound 40, 1-(2-((2S,4R)-2-((6-Bromopyridin-2-yl)carbamoyl)-4-fluoropyrrolidin-1-yl)-2-oxoethyl)-6-(pentafluoro-λ^6-sulfanyl)-1H-indazole-3-carboxamide]	< 1000 nM
O=C(Nc1cccc(-c2ccccc2Cl)c1F)[C@@H]1C[C@@H](F)CN1C(=O)Cc1cccc(Br)n1 [Compound 41, (2S,4R)-1-(2-(6-bromopyridin-2-yl)acetyl)-N-(2′-chloro-2-fluorobiphenyl-3-yl)-4-fluoropyrrolidine-2-carboxamide]	1000 to 10000 nM
O=C(Nc1cccc(-c2ccccc2Cl)c1F)[C@@H]1C[C@@H](F)CN1C(=O)Cc1cccc(Cl)c1 [Compound 42]	< 1000 nM
NC(=O)c1nn(CC(=O)N2C[C@H](F)C[C@H]2C(=O)Nc2cccc(-c3ccc4nc(F)[nH]c4c3Cl)c2F)c2ccccc12 [Compound 44, 1-(2-((2S,4R)-2-(3-(7-chloro-2-fluoro-1H-benzo[d]imidazol-6-yl)-2-fluorophenyl-carbamoyl)-4-fluoropyrrolidin-1-yl)-2-oxoethyl)-1H-indazole-3-carboxamide]	< 1000 nM
NC(=O)c1nn(CC(=O)N2C[C@H](F)C[C@H]2C(=O)Nc2cccc(-c3ccccc3Cl)c2F)c2cc(S(F)(F)(F)(F)F)ccc12 [Compound 45]	< 1000 nM
NC(=O)c1nn(CC(=O)N2C[C@H](F)C[C@H]2C(=O)Nc2cccc(C(=O)Nc3nc4cccc(Cl)c4[nH]3)c2F)c2ccccc12 [Compound 46]	< 1000 nM
NC(=O)c1nn(CC(=O)N2C[C@H](F)C[C@H]2C(=O)Nc2cccc(-c3ccc4cn[nH]c4c3Cl)c2F)c2ccccc12 [Compound 47]	< 1000 nM
COc1cc(Br)cc(CC(=O)N2C[C@H](F)C[C@H]2C(=O)Nc2cccc(-c3ccccc3Cl)c2F)c1 [Compound 48, (2S,4R)-1-(2-(3-bromo-5-methoxyphenyl)acetyl)-N-(2′-chloro-2-fluorobiphenyl-3-yl)-4-fluoropyrrolidine-2-carboxamide]	< 1000 nM
Cc1cc2c(s1)c(C(N)=O)nn2CC(=O)N1C[C@H](F)C[C@H]1C(=O)Nc1cccc(-c2cc(C(N)=O)ccc2Cl)c1F [Compound 49, 1-(2-((2S,4R)-2-(5′-carbamoyl-2′-chloro-2-fluorobiphenyl-3-ylcarbamoyl)-4-fluoropyrrolidin-1-yl)-2-oxoethyl)-5-methyl-1H-thieno[3,2-c]pyrazole-3-carboxamide]	< 1000 nM
NC(=O)c1nn(CC(=O)N2C[C@H](F)C[C@H]2C(=O)Nc2cccc(-c3cnc4nc[nH]c4c3Cl)c2F)c2ccccc12 [Compound 50, 1-(2-((2S,4R)-2-(3-(7-chloro-1H-imidazo[4,5-b]pyridin-6-yl)-2-fluorophenyl-carbamoyl)-4-fluoropyrrolidin-1-yl)-2-oxoethyl)-1H-indazole-3-carboxamide]	< 1000 nM
CC(C)(C)OC(=O)NCC(=O)c1ccc(Cl)c(-c2cccc(NC(=O)[C@@H]3C[C@@H](F)CN3C(=O)Cn3nc(C(N)=O)c4ccccc43)c2F)c1 [Compound 51, tert-butyl 2-(3′-((2S,4R)-1-(2-(3-carbamoyl-1H-indazol-1-yl)acetyl)-4-fluoropyrrolidine-2-carboxamido)-6-chloro-2′-fluorobiphenyl-3-yl)-2-oxoethylcarbamate]	< 1000 nM
NC(=O)c1nn(CC(=O)N2C[C@H](F)C[C@H]2C(=O)Nc2cccc(-c3ccc4scnc4c3)c2F)c2ccccc12 [Compound 52, 1-(2-((2S,4R)-2-(3-(benzo[d]thiazol-5-yl)-2-fluorophenyl-carbamoyl)-4-fluoropyrrolidin-1-yl)-2-oxoethyl)-1H-indazole-3-carboxamide]	< 1000 nM
NC(=O)c1cn(CC(=O)N2CCC[C@H]2C(=O)Nc2cccc(-c3ccccc3Cl)c2F)n2ccnc12 [Compound 54]	> 10000 nM
NC(=O)c1cn(CC(=O)N2C[C@H](F)C[C@H]2C(=O)Nc2cccc(Br)n2)n2ccnc12 [Compound 55, 5-(2-((2S,4R)-2-(6-bromopyridin-2-ylcarbamoyl)-4-fluoropyrrolidin-1-yl)-2-oxoethyl)-5H-imidazo[1,2-b]pyrazole-7-carboxamide]	> 10000 nM
NC(=O)c1nn(CC(=O)N2C[C@H](F)C[C@H]2C(=O)Nc2cccc(-c3ccc4ocnc4c3)c2F)c2ccccc12 [Compound 57, 1-(2-((2S,4R)-2-(3-(benzo[d]oxazol-5-yl)-2-fluorophenyl-carbamoyl)-4-fluoropyrrolidin-1-yl)-2-oxoethyl)-1H-indazole-3-carboxamide]	< 1000 nM
NC(=O)c1cn(CC(=O)N2C[C@H](F)C[C@H]2C(=O)Nc2cccc(-c3ccccc3Cl)c2F)n2ccnc12 [Compound 58, 5-(2-((2S,4R)-2-(2′-chloro-2-fluorobiphenyl-3-ylcarbamoyl)-4-fluoropyrrolidin-1-yl)-2-oxoethyl)-5H-imidazo[1,2-b]pyrazole-7-carboxamide]	1000 to 10000 nM
NC(=O)c1nn(CC(=O)N2C[C@H](F)C[C@H]2C(=O)Nc2cccc(-c3ccc4c(c3Cl)NC(=O)CN4)c2F)c2ccccc12 [Compound 59, 1-(2-((2S,4R)-2-((3-(5-Chloro-3-oxo-1,2,3,4-tetrahydroquinoxalin-6-yl)-2-fluorophenyl)carbamoyl)-4-fluoropyrrolidin-1-yl)-2-oxoethyl)-1H-indazole-3-carboxamide]	< 1000 nM
